Measured values from patent publication US10183011B2, “Anti-depression compounds” (Board of Regents of the University of Texas System, priority 2009, dated 2019).
“Also recorded” adds a separate entry of the source.

Experiments:
β-secretase (BACE1) = β-secretase (BACE1) (Homo sapiens, UniProt P56817); settings: Asso V., et al. (2008) Chem Med Chem 3:1530-1534; cited from earlier work
[1] = system: TH+ dopaminergic neurons in the substantia nigra; experiment: MPTP model of Parkinson's disease, treatment before, during and after MPTP; format: in vivo, mouse (C57BL/6); settings: 10 mg/kg i.p. twice daily; MPTP 30 mg/kg/day for 5 days
Protocol: FIG. 25A and FIG. 25B. Example 6a Compound (P7C3A20) Provides Therapeutic Benefit in Animal Model of Parkinson's Disease. Mice were treated with MPTP (30 mg/kg i.p.) or Vehicle only for 5 days and then immunohistochemically analyzed for tyrosine hydroxylase staining (TH) 21 days later (FIG. 25A). Treatment with MPTP and Vehicle (n=6) reduced the number of TH+ neurons in the substantia nigra (FIG. 25B) by approximately 50% (*, p=0.0002, Student's t test) relative to mice that received Vehicle only (n=8). […] TH+ neurons in the substantia nigra of every mouse were counted blind to treatment group by two investigators using Image J software, and results were averaged.
MPTP (1-methyl-4-phenyl-1,2,3,6-tetrahydropyridine) is a potent neurotoxin that selectively kills dopaminergic neurons in the substantia nigra of both mice and monkeys, causing a clinical picture resembling PD. The MPTP toxicity model can therefore be used to study the death of dopaminergic neurons with the goal of developing new treatments for PD based on neuroprotective strategies found to be effective in these neurons. […] TH-positive cells were counted in the substantia nigra area.

[2] = system: G93A-SOD1 transgenic mice; experiment: G93A-SOD1 model of ALS, treatment from 40 days of age; format: in vivo, mouse
Protocol: FIG. 24A, FIG. 24B, FIG. 24C and FIG. 24D. Example 45 Compound (P7C3) Provides Therapeutic Benefit in Animal Model of Amyotrophic Lateral Sclerosis (ALS). Female G93A SOD1 mice (n=30 in each group, with all mice sibling matched across treatment groups) were treated with either vehicle or P7C3 (10 mg/kg i.p. twice daily) starting at 40 days of age. […] This score is determined as follows: ‘0’=full extension of hind legs away from lateral midline when the test mouse is suspended by its tail, and can hold this for 2 seconds, suspended 2-3 times; ‘1’=collapse or partial collapse of leg extension towards lateral midline (weakness) or trembling of hind legs during tail suspension; ‘2’=toes curl under at least twice during walking of 12 inches, or any part of foot drags along cage bottom/table; ‘3’=rigid paralysis or minimal joint movement, foot not being used for forward motion; and ‘4’=mouse cannot right itself within 30 seconds from either side. With further disease progression, vehicle-treated mice show the expected decline in retention time on the accelerating rotarod, with retention time averaged across 4 trials (FIG. 24C, open bars). P7C3-treated mice, however, show a consistent trend towards improved performance on this task after onset of disease (FIG. 24C, filled bars), with statistically significant improvement on days 131, 138 and 145 (*, p<0.001, Student's t Test). All graphical data shown above is mean+/−SEM, with statistical analysis conducted using the Student's t Test). As another means of disease progression, walking gait was evaluated. […] Front paws are dipped in red ink, and back paws are dipped in black ink. […] All analysis was conducted blind to treatment group.
P7C3 was intraperitoneally administered to female G93A-SOD1 transgenic mice using a treatment paradigm of 10 mg/kg P7C3 i.p. twice a day, compared to vehicle, starting at 40 days of age. This treatment scheme was selected based on standard protocols for initial proof of concept screens in these mice. To control for transgene copy number, mice are sibling matched between treatment groups, as per standard protocol. After initiation of P7C3 or vehicle treatment, date of onset of illness is determined by peak weight, and initial progression of disease is defined as the day at which mice fall to 10% below their maximum weight. Mice are also assessed daily by a standard determination of neurological severity score, with a score of 2 or worse for two consecutive days serving as an additional marker of illness progression. This score is determined blind to treatment group with the scoring system described in the legend for the figure. […]
As an initial test of efficacy in this disease model, we intraperitoneally administered P7C3 to female G93A-SOD1 transgenic mice using a treatment paradigm of 20 mg/kg/day P7C3, with vehicle administered to siblings, starting at 40 days of age. […] To control for transgene copy number, mice were sibling matched between treatment groups, as per standard protocol, and quantitative PCR was performed to ensure that the copy number was maintained within the normal range. After initiation of P7C3 or vehicle treatment, date of onset of illness was determined by peak weight, and initial progression of disease was defined as the day at which mice fell to 10% below their maximum weight. Mice were also assessed daily by a standard measure of neurological severity score ranging from 0-4, with a higher number reflecting greater neurologic impairment. […]

[3] = 10 mg/kg i.p. twice a day from 40 days of age

Sequence of β-secretase (BACE1) (P56817 46-501, species assumed): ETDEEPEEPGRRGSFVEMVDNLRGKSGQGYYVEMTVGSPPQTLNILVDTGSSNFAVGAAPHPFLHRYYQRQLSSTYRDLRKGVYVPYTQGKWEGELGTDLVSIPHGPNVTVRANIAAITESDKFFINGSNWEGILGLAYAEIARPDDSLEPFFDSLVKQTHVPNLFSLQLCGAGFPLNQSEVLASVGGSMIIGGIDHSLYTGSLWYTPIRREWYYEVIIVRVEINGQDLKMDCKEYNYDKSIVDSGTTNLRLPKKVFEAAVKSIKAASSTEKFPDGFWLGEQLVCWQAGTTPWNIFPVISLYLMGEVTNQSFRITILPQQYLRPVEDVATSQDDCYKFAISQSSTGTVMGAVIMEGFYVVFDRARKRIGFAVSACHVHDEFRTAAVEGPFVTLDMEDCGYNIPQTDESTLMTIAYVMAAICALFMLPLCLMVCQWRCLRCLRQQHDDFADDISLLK

Structure (SMILES): OC(CNc1cccc2ccccc12)Cn1c2ccc(Cl)cc2c2cc(Cl)ccc21 (stereo not shown) [Example P7C3-S184]
- BACE1 inhibition (β-secretase (BACE1)): reported as a β-secretase (BACE1) inhibitor

Structure (SMILES): COc1cccc(NCC(F)Cn2c3ccc(Br)cc3c3cc(Br)ccc32)c1 (stereo not shown) [Example P7C3A20, N-(3-(3,6-dibromo-9H-carbazol-9-yl)-2-fluoropropyl)-3-methoxyaniline]
- MPTP-mediated death of TH+ neurons in the substantia nigra [1]: significantly attenuates MPTP-mediated killing of substantia nigra dopaminergic neurons; also recorded: significantly attenuated

Structure (SMILES): OC(CNc1ccccc1)Cn1c2ccc(Br)cc2c2cc(Br)ccc21 (stereo not shown) [Example P7C3]
- accelerating rotarod performance [2, 3]: significantly improved performance in the accelerating rotarod task
- age at neurological severity score of 2 [2, 3]: significantly delays the age at which G93A-SOD1 mice attain a neurological severity score of 2
- disease progression: time point of drop to 10% below maximum weight [2, 3]: slows disease progression
- walking gait (ink footprint) [2, 3]: preservation of normal gait on day 118
- survival ([2]; 20 mg/kg/day from 40 days of age): did not translate into increased survival of the animals
